Results as given in patent US9827219B2, “Compositions and methods for lowering levels of high-sensitivity C-reactive protein (HS-CRP) in a subject” (priority 2012, dated 2017).

Columns and labels:
Assay type in all cases: in vivo, human
Ox-LDL = assay: ANCHOR study, oxidized LDL; conditions: ANCHOR ITT, week 12
Text: (§1) Parameters (a)-(y) can be measured in accordance with any clinically acceptable methodology. For example, triglycerides, total cholesterol, HDL-C and fasting blood sugar can be sample from serum and analyzed using standard photometry techniques. VLDL-TG, LDL-C and VLDL-C can be calculated or determined using serum lipoprotein fractionation by preparative ultracentrifugation and subsequent quantitative analysis by refractometry or by analytic ultracentrifugal methodology. Apo A1, Apo B and hsCRP can be determined from serum using standard nephelometry techniques. Lipoprotein (a) can be determined from serum using standard turbidimetric immunoassay techniques. LDL particle number and particle size can be determined using nuclear magnetic resonance (NMR) spectrometry. Remnants lipoproteins and LDL-phospholipase A2 can be determined from EDTA plasma or serum and serum, respectively, using enzymatic immunoseparation techniques. Oxidized LDL, intercellular adhesion molecule-1 and interleukin-2 levels can be determined from serum using standard enzyme immunoassay techniques. These techniques are described in detail in standard textbooks, for example Tietz Fundamentals of Clinical Chemistry, 6th Ed. (Burtis, Ashwood and Borter Eds.), WB Saunders Company. […]

ICAM-1 [1] = assay: MARINE study (fasting TG ≧500 mg/dL), ICAM-1; conditions: MARINE ITT, week 12
Text: as §1

LDL-C = LDL-C in patients with diabetes mellitus-2 (Example 2); conditions: 4 g/day; for Median placebo-adjusted percent change in LDL-C from baseline to study end: 12 weeks, on statin
Text: (§2) Parameters (a)-(y) can be measured in accordance with any clinically acceptable methodology. For example, triglycerides, total cholesterol, HDL-C and fasting blood sugar can be sample from serum and analyzed using standard photometry techniques. VLDL-TG, LDL-C and VLDL-C can be calculated or determined using serum lipoprotein fractionation by preparative ultracentrifugation and subsequent quantitative analysis by refractometry or by analytic ultracentrifugal methodology. Apo A1, Apo B and hsCRP can be determined from serum using standard nephelometry techniques. Lipoprotein (a) can be determined from serum using standard turbidimetric immunoassay techniques. LDL particle number and particle size can be determined using nuclear magnetic resonance (NMR) spectrometry. Remnants lipoproteins and LDL-phospholipase A2 can be determined from EDTA plasma or serum and serum, respectively, using enzymatic immunoseparation techniques. Oxidized LDL, intercellular adhesion molecule-1 and interleukin-2 levels can be determined from serum using standard enzyme immunoassay techniques. These techniques are described in detail in standard textbooks, for example Tietz Fundamentals of Clinical Chemistry, 6th Ed. (Burtis, Ashwood and Borter Eds.), WB Saunders Company.
The effect of >96% E-EPA on lipid and inflammatory parameters was evaluated in patients with fasting triglyceride levels ≧150 mg/dl and <499 mg/dl on concomitant statin therapy. Patients with diabetes mellitus-2 were randomized and treated with either 2 g/day >96% E-EPA, 4 g/day >96%, or placebo for twelve weeks. At the end of the treatment period, several diabetes efficacy endpoints were evaluated including, TG, LDL-C, non-HDL-C, VLDL-C, Lp-PLA2, Apo B, TC, HDL-C, VLDL-TG, hs-CRP, oxLDL, and RLP-C.

ICAM-1 [2] = assay: ANCHOR study (fasting TG ≧200 and <500 mg/dl despite statin), ICAM-1; conditions: ANCHOR ITT, week 12
Text: as §2
A multi-center, placebo-controlled, randomized, double-blind, 12-week study was performed to evaluate the efficacy and safety of >96% E-EPA in patients with fasting triglyceride levels ≧200 mg/dl and <500 mg/dl despite statin therapy (the mean of two qualifying entry values needed to be ≧185 mg/dl and at least one of the values needs to be ≧200 mg/dl). The primary objective of the study was to determine the efficacy of >96% E-EPA 2 g daily and 4 g daily, compared to placebo, in lowering fasting TG levels in patients with high risk for cardiovascular disease and with fasting TG levels ≧200 mg/dL and <500 mg/dL, despite treatment to LDL-C goal on statin therapy. […]

CC/C=C\C/C=C\C/C=C\C/C=C\C/C=C\CCCC(=O)OCC [AMR101, all-cis eicosa-5,8,11,14,17-pentaenoic acid ethyl ester]
Ox-LDL change from baseline (median) (Ox-LDL; 2 g/day): 2.6% | Ox-LDL change from baseline (median) (Ox-LDL; 4 g/day): −4.8% | ICAM-1 change from baseline (median) (ICAM-1 [1]; 2 g/day): −0.4% | ICAM-1 change from baseline (median) (ICAM-1 [1]; 4 g/day): −0.9% | Median placebo-adjusted percent change in LDL-C from baseline to study end (LDL-C; less-controlled diabetes (HbA1c ≧ median of 6.8%)): −5.7% | Median placebo-adjusted percent change in LDL-C from baseline to study end (LDL-C; total diabetes): −6.3% | Median placebo-adjusted percent change in LDL-C from baseline to study end (LDL-C; well-controlled diabetes (HbA1c < median of 6.8%)): −6.6% | LDL-C levels between well-controlled, less-controlled and all diabetic subjects (LDL-C; twelve weeks): no significant decrease in LDL-C levels | ICAM-1 change from baseline (median) (ICAM-1 [2]; 2 g/day): 0.5% | ICAM-1 change from baseline (median) (ICAM-1 [2]; 4 g/day): 0.8% | ICAM-1 end-of-treatment value (median) (ICAM-1 [2]; 4 g/day): 270.0 ng/mL
